Reference: PubChem BioAssay (NCI)
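Five compound concentrations were applied to cells in 96-well plates for 48 hours; endpoints were derived by simple linear interpolation of the resulting dose-response curve. GI50 = concentration required for 50% inhibition of growth. At the TGI there is no net growth.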

Key:
Assay in all cases: growth of human tumour cells (NCI), 48 h
[1] = test system: OVCAR-3 ovarian
[2] = test system: SK-MEL-5 melanoma
[3] = test system: HCT-116 colon
[4] = test system: MOLT-4 leukemia
[5] = test system: U251 CNS
[6] = test system: SK-OV-3 ovarian
[7] = test system: TK-10 renal
[8] = test system: NCI-H226 lung
[9] = test system: SR leukemia
[10] = test system: SNB-19 CNS

Row | SMILES | TGI [1] [µM] | TGI [2] [µM] | TGI [3] [µM] | TGI [4] [µM] | TGI [5] [µM] | TGI [6] [µM] | TGI [7] [µM] | TGI [8] [µM] | TGI [9] [µM] | TGI [10] [µM] | GI50 [1] [µM] | GI50 [2] [µM] | GI50 [3] [µM] | GI50 [4] [µM] | GI50 [5] [µM] | GI50 [6] [µM] | GI50 [7] [µM] | GI50 [8] [µM] | GI50 [9] [µM]
1 | CC(=S)NC1C(Oc2ccc3c(C)cc(=O)oc3c2)OC(CO)C(O)C1O (stereo not given) | > 100 | > 100 | > 100 | > 100 | > 100 | > 100 | > 100 | > 100 | > 100 | > 100 |  |  |  |  |  |  |  |  | 
2 | COc1cccc(C(=O)C(O)c2cccc(OC)c2OC)c1OC (stereo not given) | > 100 | > 100 | > 100 | > 100 | > 100 | > 100 | > 100 | > 100 | > 100 | > 100 |  |  |  |  |  |  |  |  | 
3 | COc1nc(NC2OCC(OC(C)=O)C(OC(C)=O)C2OC(C)=O)c(N=C(C)C(C)=O)c(=O)n1C (stereo not given) |  | > 100 | > 100 | > 100 | > 100 |  | > 100 | > 100 | > 100 | > 100 |  |  |  |  |  |  |  |  | 
4 | C[Si](C)(C)C1=C2C(=O)c3ccccc3C(=O)C2=C([Si](C)(C)C)[C@@H]2CCCC[C@H]12 | > 100 | > 100 | > 100 | > 100 | > 100 | > 100 | > 100 |  | > 100 | > 100 |  |  |  |  |  |  |  |  | 
5 | CCC1OC(=O)C(C)C(OC2CC(C)(O)C(O)C(C)O2)C(C)C(O)C(C)(O)CC(C)C(=O)C(C)C(O)C1C (stereo not given) | > 300 | > 300 | > 300 | > 300 | > 300 | > 300 |  | > 300 |  | > 300 |  |  |  |  |  |  |  |  | 
6 | CN1C(=N\S(=O)(=O)c2ccc(Cl)cc2)/C(=N/N=P(c2ccccc2)(c2ccccc2)c2ccccc2)c2ccccc21 | > 100 | > 100 | > 100 | > 100 | > 100 | > 100 | > 100 | > 100 | > 100 | > 100 |  |  |  |  |  |  |  |  | 
7 | Cc1cccc2ns[s+]c12 | > 100 | > 100 | 37.7 | > 100 | > 100 | > 100 | > 100 | > 100 |  | > 100 |  |  |  |  |  |  |  |  | 
8 | O=C(Cl)c1cc([N+](=O)[O-])cc([N+](=O)[O-])c1 |  | > 100 | > 100 | > 100 | > 100 | > 100 | > 100 | > 100 | > 100 | > 100 |  |  |  |  |  |  |  |  | 
9 | CN(C)CCCn1c2c(c3ccncc3c1=O)C(=O)c1ccccc1-2 | 9.6 | 2.5 | 21.8 |  | 15.3 | 65 | 24.3 | 2.47 | 11.9 |  | 1.99 | 1.07 | 0.382 | 0.324 | 0.757 | 12.1 | 1.98 | 0.466 | 0.313
10 | CN(C)CCCN1c2ccc3ccccc3c2Sc2cccc(Cl)c21 | 10.6 | 9.59 | 14 | 4.75 | 4.72 | 26.4 | 5.67 | 18.7 |  | 22.7 |  |  |  |  |  |  |  |  | 
11 | O=C(CCc1nnc2s/c(=C\c3ccc(Cl)cc3Cl)c(=O)n12)Nc1cc(Cl)c(Cl)cc1Cl | > 100 | > 100 | > 100 | > 100 | > 100 | > 100 | > 100 | > 100 | > 100 |  | > 100 | > 100 | > 100 | > 100 |  | > 100 |  | > 100 | > 100
